From the supplement of paper PMC4862054

Assays:
Conditions in all cases: incubation time: 72 h
BT-474 [1] = test: normalised viability (% of control), CellTiter-Blue; higher = more viable cells (about 100 = DMSO control)
Method in brief: (§1)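 384-well plates were pre-loaded with compound in 5 µl medium before 20 µl of breast cancer cell suspension was seeded. Following 72 h incubation, 2.5 µl CellTiter-Blue reagent was added for 2 h at 37 °C. Fluorescence was read at 560/590 nm and plates were normalised to vehicle (100) and a positive kill control (0), checked by Z'-factor. Normalised viability is reported at a single listed concentration of the series.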

CAL-120 [2] = test: as above
Method in brief: as §1

CAL-148 = test: as above
Method in brief: as §1

CAL-51 [3] = test: as above
Method in brief: as §1

CAL-85-1 [4] = test: as above
Method in brief: as §1

HCC1143 = test: as above
Method in brief: as §1

HCC1599 [5] = test: as above
Method in brief: as §1

HCC1937 = test: as above
Method in brief: as §1

HDQ-P1 [6] = test: as above
Method in brief: as §1

Hs578T [7] = test: as above
Method in brief: as §1

MDA-MB-231 [8] = test: as above
Method in brief: as §1

MDA-MB-468 = test: as above
Method in brief: as §1

MFM-223 = test: as above
Method in brief: as §1

SK-BR-3 [9] = test: as above
Method in brief: as §1

BT-474 [10] = test: drug sensitivity score (DSS), CellTiter-Glo (DSS (AUC-based score)); higher = stronger drug effect (viability inhibition or cytotoxicity); extreme values may be limits of the assay
Method in brief: (§2)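 Breast cancer cell lines (20 µl suspension) were seeded into 384-well plates holding compound at 5 concentrations in 10-fold steps over a compound-specific 10,000-fold range, then incubated 72 h. CellTox Green fluorescence (485/520 nm) was read first, then CellTiter-Glo luminescence after 10 min at room temperature. Each plate was normalised to 0.1 % DMSO and a positive kill control. The drug sensitivity score was calculated from the area under the fitted dose-response curve.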

CAL-120 [11] = test: as above
Method in brief: as §2

CAL-51 [12] = test: as above
Method in brief: as §2

CAL-85-1 [13] = test: as above
Method in brief: as §2

DU-4475 = test: as above
Method in brief: as §2

HCC1599 [14] = test: as above
Method in brief: as §2

HDQ-P1 [15] = test: as above
Method in brief: as §2

Hs578T [16] = test: as above
Method in brief: as §2

MDA-MB-231 [17] = test: as above
Method in brief: as §2

SK-BR-3 [18] = test: as above
Method in brief: as §2

CC1(C)NC(=O)N(c2ccc([N+](=O)[O-])c(C(F)(F)F)c2)C1=O [Nilutamide]
normalised viability [%]
Conditions	3 nM	10 nM	30 nM	100 nM	1000 nM	10000 nM
BT-474 [1]	–	122	–	–	128	110
CAL-51 [3]	101	–	96.1	94.6	–	–
CAL-85-1 [4]	98	–	88.9	100	–	–
CAL-120 [2]	–	95.6	–	–	90.1	116
CAL-148	95.5	–	100	97	–	–
HCC1143	–	89.3	–	–	113	94
HCC1599 [5]	–	97.9	–	–	82.5	113
HCC1937	–	105	–	–	87.3	94.7
HDQ-P1 [6]	124	–	120	112	–	–
Hs578T [7]	–	108	–	–	139	119
MDA-MB-231 [8]	–	102	–	–	92.2	109
MDA-MB-468	–	115	–	–	103	103
MFM-223	–	108	–	–	98.4	85.8
SK-BR-3 [9]	–	100	–	–	104	132

Conditions	drug sensitivity score
BT-474 [10]	0
CAL-51 [12]	2.72
CAL-85-1 [13]	0
CAL-120 [11]	0
DU-4475	0
HCC1599 [14]	0
HDQ-P1 [15]	0
Hs578T [16]	0
MDA-MB-231 [17]	0
SK-BR-3 [18]	0

Cn1c(CCCC(=O)O)nc2cc(N(CCCl)CCCl)ccc21 [Bendamustine]
normalised viability [%]
Conditions	3 nM	10 nM	30 nM	100 nM	1000 nM	10000 nM
BT-474 [1]	–	127	–	–	120	105
CAL-51 [3]	111	–	105	111	–	–
CAL-85-1 [4]	91.2	–	94.8	100	–	–
CAL-120 [2]	–	89.5	–	–	86.7	93.4
CAL-148	99.8	–	112	106	–	–
HCC1143	–	107	–	–	104	97.8
HCC1599 [5]	–	115	–	–	105	114
HCC1937	–	55.3	–	–	85.7	93.7
HDQ-P1 [6]	105	–	119	109	–	–
Hs578T [7]	–	110	–	–	127	97.7
MDA-MB-231 [8]	–	102	–	–	96.1	91
MDA-MB-468	–	107	–	–	95	82.3
MFM-223	–	96.2	–	–	87.4	93.5
SK-BR-3 [9]	–	108	–	–	109	85

Conditions	drug sensitivity score
BT-474 [10]	0
CAL-51 [12]	0
CAL-85-1 [13]	0
CAL-120 [11]	0
DU-4475	0
HCC1599 [14]	0
HDQ-P1 [15]	0
Hs578T [16]	0
MDA-MB-231 [17]	0
SK-BR-3 [18]	0
